From patent US20240239752A1, “BICYCLIC HETEROAROMATIC INHIBITORS OF KLK5” (BioCryst Pharmaceuticals, Inc., priority 2021, published 2024)

Each compound was assayed against T1, recombinant human KLK5 (Homo sapiens, UniProt Q9Y337) (assay: Kallikrein (KLK) 5 enzymatic assay (Boc-VPR-AMC fluorogenic substrate)). Conditions: recombinant human KLK5 0.1 μg/well, Boc-VPR-AMC 100 μM, pH 7.5, room temperature, 1% DMSO; tested a minimum of three times.
T1 construct: purchased Novoprotein or R&D Systems C415 or 1108-SE
T1 sequence (Q9Y337 23-293): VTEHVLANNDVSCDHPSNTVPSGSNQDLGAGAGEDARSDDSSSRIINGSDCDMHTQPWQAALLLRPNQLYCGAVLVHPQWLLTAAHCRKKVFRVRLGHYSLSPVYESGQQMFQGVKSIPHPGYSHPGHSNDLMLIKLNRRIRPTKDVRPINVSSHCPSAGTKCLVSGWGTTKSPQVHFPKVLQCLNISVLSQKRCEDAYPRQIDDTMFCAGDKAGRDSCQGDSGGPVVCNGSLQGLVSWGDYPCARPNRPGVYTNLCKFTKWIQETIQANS
Format: biochemical
In short: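 Fluorogenic rate assay at pH 7.5 (0.1 M NaH2PO4, 1% DMSO, room temperature), run at least three times per compound. Compound was premixed with 0.1 μg/well recombinant human KLK5 before adding 100 μM Boc-VPR-AMC; AMC release was read at ex 380/em 460 nm, and IC50 derived from inhibition of rate vs DMSO control.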

| Structure (SMILES) | IC50 |
| --- | --- |
| Nc1nccc2c(-c3ccc4c(c3)C(Oc3ccccc3CC(=O)O)CC4)cccc12 (stereo not drawn) [Compound 200b, 2-(2-((6-(1-aminoisoquinolin-5-yl)-2,3-dihydro-1H-inden-1-yl)oxy)phenyl)acetic acid] | < 1 µM |
| Nc1nccc2ccc(-c3ccc4c(c3)c(COc3ccccc3CC(=O)O)nn4-c3ccccc3)cc12 [Compound 201c, 2-(2-((5-(1-aminoisoquinolin-7-yl)-1-phenyl-1H-indazol-3-yl)methoxy)phenyl)acetic acid] | < 1 µM |
| Nc1nccc2c(-c3ccc4c(c3)c(COc3ccccc3CC(=O)O)nn4-c3ccccc3)cccc12 [Compound 202b, 2-(2-((5-(1-aminoisoquinolin-5-yl)-1-phenyl-1H-indazol-3-yl)methoxy)phenyl)acetic acid] | < 1 µM |
| N=C(N)c1cccc(-c2ccc3c(c2)c(COc2ccccc2CC(=O)O)nn3-c2ccccc2)c1 [Compound 203c, 2-(2-((5-(3-carbamimidoylphenyl)-1-phenyl-1H-indazol-3-yl)methoxy)phenyl)acetic acid] | < 1 µM |
| Nc1nccc2ccc(-c3ccc4c(c3)C(Oc3ccccc3CC(=O)O)CCC4)cc12 (stereo not drawn) [Compound 204d, 2-(2-((7-(1-aminoisoquinolin-7-yl)-1,2,3,4-tetrahydronaphthalen-1-yl)oxy)phenyl)acetic acid] | 1 to 10 µM |
| Cc1cc(-c2ccc3ccnc(N)c3c2)cc2c1CCC2Oc1ccccc1CC(=O)O (stereo not drawn) [Compound 205e, 2-(2-((6-(1-aminoisoquinolin-7-yl)-4-methyl-2,3-dihydro-1H-inden-1-yl)oxy)phenyl)acetic acid] | 1 to 10 µM |
| Cc1cc(-c2cccc3c(N)nccc23)cc2c1CCC2Oc1ccccc1CC(=O)O (stereo not drawn) [Compound 206b, 2-(2-((6-(1-aminoisoquinolin-5-yl)-4-methyl-2,3-dihydro-1H-inden-1-yl)oxy)phenyl)acetic acid] | < 1 µM |
| Nc1nccc2ccc(-c3cc(F)c4c(c3)C(Oc3ccccc3CC(=O)O)CC4)cc12 (stereo not drawn) [Compound 207e, 2-(2-((6-(1-aminoisoquinolin-7-yl)-4-fluoro-2,3-dihydro-1H-inden-1-yl)oxy)phenyl)acetic acid] | < 1 µM |
| Nc1nccc2c(-c3cc(F)c4c(c3)C(Oc3ccccc3CC(=O)O)CC4)cccc12 (stereo not drawn) [Compound 208b, 2-(2-((6-(1-aminoisoquinolin-5-yl)-4-fluoro-2,3-dihydro-1H-inden-1-yl)oxy)phenyl)acetic acid] | < 1 µM |
| Nc1nccc2ccc(-c3ccc4c(c3)C(Oc3ccccc3CC(=O)O)c3ccccc3-4)cc12 (stereo not drawn) [Compound 209e, 2-(2-((2-(1-aminoisoquinolin-7-yl)-9H-fluoren-9-yl)oxy)phenyl)acetic acid] | < 1 µM |
| Nc1nccc2c(-c3ccc4c(c3)C(Oc3ccccc3CC(=O)O)c3ccccc3-4)cccc12 (stereo not drawn) [Compound 210b, 2-(2-((2-(1-aminoisoquinolin-5-yl)-9H-fluoren-9-yl)oxy)phenyl)acetic acid] | < 1 µM |
| COc1ccc(-c2ccc3c(c2)c(COc2ccccc2CC(=O)O)nn3C(C)C)cc1C(=N)N [Compound 211e, 2-(2-((5-(3-carbamimidoyl-4-methoxyphenyl)-1-isopropyl-1H-indazol-3-yl)methoxy)phenyl)acetic acid] | 1 to 10 µM |
| CC(C)n1nc(COc2ccccc2CC(=O)O)c2cc(-c3cccc4c3OCC4N)ccc21 (stereo not drawn) [Compound 212c, 2-(2-((5-(3-amino-2,3-dihydrobenzofuran-7-yl)-1-isopropyl-1H-indazol-3-yl)methoxy)phenyl)acetic acid] | 1 to 10 µM |
| CC(C)n1nc(COc2ccccc2CC(=O)O)c2cc(-c3cccc4c3OCCC4N)ccc21 (stereo not drawn) [Compound 213c, 2-(2-((5-(4-aminochroman-8-yl)-1-isopropyl-1H-indazol-3-yl)methoxy)phenyl)acetic acid] | > 10 µM |
| CC(C)n1nc(COc2ccccc2CC(=O)O)c2cc(-c3ccc4c(c3)C(N)CCO4)ccc21 (stereo not drawn) [Compound 214c, 2-(2-((5-(4-aminochroman-6-yl)-1-isopropyl-1H-indazol-3-yl)methoxy)phenyl)acetic acid] | > 10 µM |

Continued, values first:

| IC50 | Structure (SMILES) |
| --- | --- |
| < 1 µM | Nc1nccc2ccc(-c3ccc4c(c3)[C@H](Oc3ccccc3CC(=O)O)CC4)cc12 [Compound 215d, (R)-2-(2-((6-(1-aminoisoquinolin-7-yl)-2,3-dihydro-1H-inden-1-yl)oxy)phenyl)acetic acid] |
| < 1 µM | Nc1nccc2c(-c3ccc4c(c3)[C@H](Oc3ccccc3CC(=O)O)CC4)cccc12 [Compound 216b, (R)-2-(2-((6-(1-aminoisoquinolin-5-yl)-2,3-dihydro-1H-inden-1-yl)oxy)phenyl)acetic acid] |
| > 10 µM | Cn1c(=O)n(Cc2ccccc2CC(=O)O)c2cc(-c3ccc4ccnc(N)c4c3)ccc21 [Compound 217e, 2-(2-((6-(1-aminoisoquinolin-7-yl)-3-methyl-2-oxo-2,3-dihydro-1H-benzo[d]imidazol-1-yl)methyl)phenyl)acetic acid] |
| 1 to 10 µM | Cn1c(=O)n(Cc2ccccc2CC(=O)O)c2cc(-c3cccc4c(N)nccc34)ccc21 [Compound 218b, 2-(2-((6-(1-aminoisoquinolin-5-yl)-3-methyl-2-oxo-2,3-dihydro-1H-benzo[d]imidazol-1-yl)methyl)phenyl)acetic acid] |
| 1 to 10 µM | Cn1c(=O)n(Cc2ccccc2CC(=O)O)c2cc(-c3cccc(C(=N)N)c3)ccc21 [Compound 219c, 2-(2-((6-(3-carbamimidoylphenyl)-3-methyl-2-oxo-2,3-dihydro-1H-benzo[d]imidazol-1-yl)methyl)phenyl)acetic acid] |
| 1 to 10 µM | Cn1c(=O)n(Cc2ccccc2CC(=O)O)c2cc(-c3cccc(C(N)=O)c3)ccc21 [Compound 219d, 2-(2-((6-(3-carbamoylphenyl)-3-methyl-2-oxo-2,3-dihydro-1H-benzo[d]imidazol-1-yl)methyl)phenyl)acetic acid] |
| 1 to 10 µM | Cc1cc2c(-c3ccc4c(c3)c(COc3ccccc3CC(=O)O)nn4C(C)C)cccc2c(N)n1 [Compound 220d, 2-(2-((5-(1-amino-3-methylisoquinolin-5-yl)-1-isopropyl-1H-indazol-3-yl)methoxy)phenyl)acetic acid] |
| 1 to 10 µM | Nc1nccc2ccc(-c3ccc4c(c3)[C@@H](Oc3ccccc3CC(=O)O)CC4)cc12 [Compound 221d, (S)-2-(2-((6-(1-aminoisoquinolin-7-yl)-2,3-dihydro-1H-inden-1-yl)oxy)phenyl)acetic acid] |
| 1 to 10 µM | Nc1nccc2c(-c3ccc4c(c3)[C@@H](Oc3ccccc3CC(=O)O)CC4)cccc12 [Compound 222b, (S)-2-(2-((6-(1-aminoisoquinolin-5-yl)-2,3-dihydro-1H-inden-1-yl)oxy)phenyl)acetic acid] |
| < 1 µM | Nc1nccc2c(-c3ccc4c(c3)c(COc3ccccc3CC(=O)O)nn4C3CCCC3)cccc12 [Compound 223b, 2-(2-((5-(1-aminoisoquinolin-5-yl)-1-cyclopentyl-1H-indazol-3-yl)methoxy)phenyl)acetic acid] |
| < 1 µM | N=C(N)c1cccc(-c2ccc3c(c2)c(COc2ccccc2CC(=O)O)nn3C2CCCC2)c1 [Compound 224b, 2-(2-((5-(3-carbamimidoylphenyl)-1-cyclopentyl-1H-indazol-3-yl)methoxy)phenyl)acetic acid] |
| < 1 µM | Nc1nccc2c(-c3ccc4c(c3)c(COc3ccccc3CC(=O)O)nn4C3CCCCC3)cccc12 [Compound 225b, 2-(2-((5-(1-aminoisoquinolin-5-yl)-1-cyclohexyl-1H-indazol-3-yl)methoxy)phenyl)acetic acid] |
